Where “and” joins values, the source holds several entries; their conditions need not be identical. Identical values can stand only once. Marks after values point to notes of the source that are not given here.
What was measured:
[1] = Nasal solution solubility evaluation in solvent/co-solvent systems (HPLC-UV); type: physicochemical; settings: organic solvent or mixture, thermodynamic from solid; Caprylocaproyl Polyoxylglycerides (Labrasol ALF), Composition 8
Method: The solvents were chosen from a group consisting of Caprylocaproyl Polyoxylglycerides (Labrasol ALF), propylene glycol, PEG-400, vitamin E TPGS, ethanol, water, and any combination thereof.
50 g stock solutions of each solvent system were prepared. The active solutions 3.0 mL of each solvent was aliquoted to separate 8 mL clear glass vials. […] Every 30 minutes the solutions were inspected. […] This process was repeated until visible saturation of all solvent systems was obtained. Prior to analysis, the samples were centrifuged at 5,000 RPM for 3 minutes and filtered through a 0.45 μm nylon syringe filter to remove excess solids.
The dose calculations included in Table 42 are based on 75% of the concentration at saturation. This is to reduce the risk of precipitation/crystallization due to environmental fluctuations. Additionally, two dose volumes (0.2/0.5 mL) were selected in accordance with the standard range for nasal delivery. The total dose illustrated is based on the equivalent volume delivered to each nostril, 0.4-1.0 mL total per dose.

[2] = Pharmacokinetic profile after single intravenous or oral gavage dose in rats; settings: for C0: back predicted to time 0
Method: Animals were dosed via oral gavage or intravenous injection once on Day 1 at a volume of 5 mL/kg for Group 1 and 10 mL/kg for Group 2. The vehicle was 40% (v/v) Polyethylene Glycol 400 (PEG400), 20% (v/v) Propylene Glycol, 5% (v/v) Ethanol, and 35% (v/v) water for Group 1 and the vehicle was 0.5% (w/v) Carboxymethylcellulose (medium viscosity) in reverse osmosis water for Group 2.
Blood samples (approximately 0.5 mL) were collected from nonfasted toxicokinetic animals via a jugular vein on Day 1 of the dosing phase, as indicated in Table 18
Blood was collected into tubes containing potassium (K2) EDTA as the anticoagulant. Samples were maintained on wet ice and were centrifuged within 30 minutes of collection. Plasma was harvested and stored on dry ice until placed in a freezer, set to maintain −60 to −80° C., until shipped on dry ice to Origin Bioanalytical Laboratory, Inc. for analysis.
Pharmacokinetic parameters were derived using non-compartmental methods employing Phoenix WinNonlin® version 8.1 (Pharsight Corp; St. Louis, MO). The PK parameters defined previously in Table 10 were calculated by non-compartmental methods using composite plasma concentration-time data obtained from 3 rats/sex/time point/dose. The area under the concentration-time curve from zero time (pre-dose) to the last time point was calculated by a combination of linear and logarithmic trapezoidal methods. The linear trapezoidal method was employed for all incremental trapezoids arising from increasing concentrations and the logarithmic trapezoidal method was used for those arising from decreasing concentrations (linear up/log down method). Nominal blood sampling times were used in the analysis. […] Individual BQL results were set to zero for all calculations. No animals were excluded from the analysis.

[3] = Solubility at 50° C. in common SEDDS excipients by visual inspection; type: physicochemical
[4] = Effect of water content on solubility (formulations F1-F3); type: physicochemical
Method: Increasing amounts of PVP and Poloxamer were added to compositions F1-F3 to inhibit rapid precipitation upon dilution in water.
The solutions were then cooled to ambient room temperature and mixed for ˜4 hours prior to filtering and being evaluated by an assay.

[5] = Solubility in 1:1 mixture of Gelucire 44/14 and Span 80 (tablet solubilizer); type: physicochemical
Method: After successful completion of the dry blend tablet formulation, efforts were made to attempt to enhance solubilization of the drug. Upon successful creation of the tablet prototype batch A, the tablet prototype batch B was developed wherein Bumetanide Dibenzylamide solubilizers were incorporated directly into the dry blend tablet formulation. […] The 1:1 ratio of Lauroyl Polyoxyl-32 Glycerides (Gelucire 44/14), to Sorbitan Ester (Span 80), was determined by combined melting point, taste, viscosity, and solubilizing ability. The ratio provided a semi-solid, which may be liquefied upon application of low heat. […] This mixture was kept under constant stirring to ensure complete even dispersal of ingredients. Continuing under constant heating and mixing, Neusilin US2 (Magnesium Aluminometasilicate) was slowly added to adsorb the viscous mixture onto its particles rough surface. Upon complete adsorption the heat was removed with continued mixing until room temperature was reached. The cooled, hot-melt granulation was then sieved and blended with sieved Polyplasdone XL (Super Disintegrate), Cabosil M5P (fumed silica), and Citric Acid Monohydrate, and Magnesium Stearate. Table 58 illustrates the formulation employed for a sublingual tablet prototype batch B, which was utilized for canine studies. […]

[6] = male, Hsd: Sprague Dawley, rat, plasma, iv, 10 mg/kg
[7] = rats, oral 30 mg/kg vs IV 10 mg/kg

- solubility at 8 h [1]: ~66 mg/mL
- Plasma Bumetanide Dibenzylamide concentration ([2]; male rats, IV bolus 10 mg/kg, 1 h, 10 mg/kg): 1040 ng/mL
- AUC(0-inf) [2, 6]: 3730 ng·h/mL
- Vd [2, 6]: 10.1 L/kg
- clearance [2, 6]: 44.7 mL/min/kg
- C0 ([2]; male, Hsd: Sprague Dawley, rat, plasma, iv, 10 mg/kg, C0, rats, IV bolus 10 mg/kg): 2780 ng/mL
- concentration at 0.08 h ([2]; male, Hsd: Sprague Dawley, rat, plasma, iv, 10 mg/kg, Plasma Bumetanide Dibenzylamide concentration, male rats, IV bolus 10 mg/kg, 0.08 h): 2510 ng/mL
- concentration at 4 h ([2]; male, Hsd: Sprague Dawley, rat, plasma, po, 30 mg/kg, Plasma Bumetanide Dibenzylamide concentration, male rats, oral 30 mg/kg, 4 h): 4.56 ng/mL
- concentration at 1 h ([2]; male, Sprague Dawley, rat, plasma, iv, 10 mg/kg, Plasma Bumetanide Dibenzylamide concentration, male rats, IV bolus 10 mg/kg, 1 h): 993 ng/mL
- C0 ([2]; rats, IV bolus 10 mg/kg, 10 mg/kg): 2720 ng/mL
- Fabs (%) [2, 7]: 0.34% and 0.32%
- Fabs (ratio) [2, 7]: 0.0034 and 0.0032
- Bumetanide Dibenzylamide, in solution ([3]; Captex 300 (Caprylic/Capric Triglyceride, Medium Chain Triglyceride), 50° C.): <1* mg/ml
- Bumetanide Dibenzylamide, in solution ([3]; Drakeol 6VR LT (Mineral Oil), 50° C.): <1* mg/ml
- Bumetanide Dibenzylamide, in solution ([3]; Kolliphor EL (Polyoxyl 35 castor oil), 50° C.): 13.5 mg/mL
- Bumetanide Dibenzylamide, in solution ([3]; Labrafac Lipophile WL 1349 (Medium Chain Triglyceride), 50° C.): 3 mg/mL
- Bumetanide Dibenzylamide, in solution ([3]; Labrafil M 1944CS (Oleoyl polyoxyl 1-6 glycerides), 50° C.): 4.5 mg/mL
- Bumetanide Dibenzylamide, in solution ([3]; Labrasol ALF (Caprylocaproyl Polyoxylglycerides), 50° C.): 63 mg/mL
- Bumetanide Dibenzylamide, in solution ([3]; Lauroyl Plyoxyl-32 Glycerides (Gelucire 44/14), 50° C.): 106 mg/mL
- Bumetanide Dibenzylamide, in solution ([3]; Oleic Acid, 50° C.): <1* mg/ml
- Bumetanide Dibenzylamide, in solution ([3]; Oleyl Alcohol, 50° C.): <1* mg/ml
- Bumetanide Dibenzylamide, in solution ([3]; Polyethylene Glycol 400, 50° C.): 8.6 mg/mL
- Bumetanide Dibenzylamide, in solution ([3]; Propylene Glycol, 50° C.): 2 mg/mL
- Bumetanide Dibenzylamide, in solution ([3]; Sorbitan Ester (Span 80), 50° C.): 250 mg/mL
- Bumetanide Dibenzylamide, in solution ([3]; Soybean Oil, 50° C.): 2 mg/mL
- maximum concentration of Bumetanide Dibenzylamide ([4]; rectal gel, about 20% water): about 2.4%
- maximum concentration of Bumetanide Dibenzylamide ([4]; rectal paste, no water): about 4.16%
- solubility [5]: approximately 500 mg/g
Structure (SMILES): CCCCNc1cc(C(=O)N(Cc2ccccc2)Cc2ccccc2)cc(S(N)(=O)=O)c1Oc1ccccc1 [Bumetanide Dibenzylamide, N, N-dibenzyl 3-aminosulfonyl-5-butylamino-4-phenoxybenzamide]

Source: US20250120932A1, “PHARMACEUTICAL COMPOSITION” (NEUROPRO THERAPEUTICS, INC., priority 2021, published 2025)
